In patent US20210228552A1, “METHOD FOR ADJUSTING RAS UBIQUITINATION” (Xiamen University, priority 2018, published 2021):
“Also recorded” adds a separate entry of the source.

How the values were obtained:
HT-29 cells = assay: Colony forming ability on soft agar, HT-29 cells; type: cell-based, Human; conditions: HT-29 cells (Raf kinase mutation), 10-30 days, FIG. 4(c)
Procedure: (§1) i. 1% agar was prepared and sterilized under high pressure. 1% Agar was heated and melted in a boiling water bath before use, then cooled in a 40° C. water bath (standing for at least 30 minutes and cooling the agar to 40° C.); and 2×DMEM/FBS was placed in a warm bath at the same time;
(§2) ii. 0.5% bottom agar was prepared by mixing 1% agar and 2×DMEM/FBS in a sterile tube at a volume ratio of 1:1. The mixture was quickly added to a 6-well plate, 1.5 mL per well, gently shake it well, and it was stood at room temperature to be solidified (after solidification, it can be stored at 4° C. for 1 week. Leave at room temperature for at least 30 minutes before use to restore it to room temperature).
(§3) i. A final concentration of 0.3% agar+1×DMEM/FBS mixture was prepared in sterile tubes by using 1% agar at a temperature of 40° C., 2×DMEM/FBS and sterile water. The prepared mixed solution was put into a 40° C. water bath kettle for later use;
(§4) ii. The cells were digested by trypsin and counted, and the cell density was adjusted according to the needs of the experiment; […]

K-Ras-G12V [1] = molecular target: T1, K-Ras-G12V (Homo sapiens, UniProt P01116, G12V); assay: Exogenous Flag-K-Ras-G12V protein level in transfected HEK293T cells (Western blotting); type: cell-based; conditions: HEK293T cells transfected with Flag-K-Ras-G12V, 2.5-20 μM, 24 h, FIG. 3(b)
Procedure: Compounds that can Decrease the Level of Exogenous K-Ras-G12V were Screened in HEK293T Cells
1) Cell plating: HEK293T cells in logarithmic growth phase were inoculated into 12-well plates and cultured in 37° C. and 5% CO2 incubator. The best inoculation amount was at a cell density of 70%-90% when transfected the next day. […]
(§5) 3) Detection of K-Ras protein level: 24 hours after administration, liquid in the well was discarded, the cells were routinely collected, the cells were rinsed twice with 1×PBS, and the cell lysate was added to extract the total cell protein. The protein concentration was determined by BCA method. […]
(§6) 4) Calculation of single point K-Ras protein degradation rate: quantitative and calibration analysis on Flag-K-Ras and β-actin were performed by Image-Lab software, and then the intracellular Flag-K-Ras degradation rate was calculated according to the following formula: single point Flag-K-Ras protein degradation rate (%)=(control group-administration group)/control group×100%. […]

K-Ras-G12V [2] = molecular target: T1, K-Ras-G12V; assay: Endogenous K-Ras-G12V protein level in SW620 cells (Western blotting); type: cell-based; set-up: endogenous in cells; host or cells: SW620; conditions: 2.5-20 μM, 24 h, FIG. 3(a)
Procedure: Compounds that can Decrease the Level of Endogenous K-Ras-G12V were Screened in SW620 Cells
1) Cell plating: SW620 cells in logarithmic growth phase were inoculated into 24-well plates with 2×10^4/well and cultured in 37° C. and 5% CO2 incubator.
2) Cell administration: after 24 hours of culture, various drug stock solutions were diluted […]; the stock solution from the 24-well plate was discarded, then the prepared drug solution was added, with taking the DMSO group as a blank control; after the drug was added, it was transferred to the CO2 incubator at 37° C. to continue the culture.
as §5
as §6, with “K-Ras” for “Flag-K-Ras”

SW620 cells = assay: Colony forming ability on soft agar, SW620 cells; type: cell-based, Human; conditions: 10-30 days, FIG. 4(b)
Procedure: as §1, §2, §3, §4

MCF-7 cells = assay: Colony forming ability on soft agar, MCF-7 cells; type: cell-based, Human; conditions: 10-30 days, FIG. 4(a)
Procedure: as §1, §2, §3, §4

Structure (SMILES): O=C(NCc1ccccc1C(F)(F)F)c1c[nH]c(-c2n[nH]c3ncccc23)c1 [ZT-10-158-01]
- colony forming ability on agar (HT-29 cells): no significant inhibitory effect; also recorded: did not inhibit the colony forming ability
- level of exogenous K-Ras-G12V protein (K-Ras-G12V [1]): effective in decreasing K-Ras protein levels in cells, and in a positive concentration-dependent correlation; also recorded: effective in decreasing the level of exogenous K-Ras-G12V protein in HEK293T cells with a positive concentration-dependent inhibitory effect
- level of endogenous K-Ras-G12V protein (K-Ras-G12V [2]): effective in decreasing K-Ras protein levels in cells, and in a positive concentration-dependent correlation; also recorded: effective in decreasing the level of endogenous K-Ras-G12V protein in SW620 cells with a positive concentration-dependent inhibitory effect
- colony forming ability on agar (SW620 cells): can selectively inhibit the colony formation; also recorded: effective in inhibiting colony forming ability
- colony forming ability on agar (MCF-7 cells): can selectively inhibit the colony formation; also recorded: effective in inhibiting colony forming ability
